Measurements taken from patent US10933145B2, “Compositions and methods for reducing the risk of radiocontrast-induced nephropathy” (UNIVERSITY OF PITTSBURGH—OF THE COMMONWEALTH SYSTEM OF …, priority 2016, dated 2021).

Key:
[1] = system: NFκB activity in MDCK cells; test: NFκB activity in MDCK cells exposed to radiocontrast, with or without calcineurin inhibitor; format: cell-based, Canine; conditions: MDCK cells treated with 16% radiocontrast; FIG. 4A
Excerpt: FIG. 4A-B. NFκB activity in MDCK cells exposed to increasing amounts of radiocontrast and treated with (A) FK506 (gray bar) or DMSO (as negative control, black bar) or (B) Cyclosporin A.
NFκB activity in MDCK cells exposed to increasing amounts of radiocontrast and treated with either FK506 (FIG. 4A) or cyclosporin A (FIG. 4B).

[2] = system: NFAT activity in MDCK cells; test: NFAT-luciferase reporter activity in MDCK cells; format: cell-based, Canine; conditions: 16 percent radiocontrast, 3 hours, MDCK cells infected with Ad-NFAT-luciferase; FIG. 2
Experimental: FIG. 2. NFAT (Nuclear Factor of Activated T-cells) activity in MDCK cells measured via NFAT-luciferase expression at increasing concentrations of radiocontrast. MDCK were engineered to contain a reporter for inflammatory NFAT activity. In particular, MDCK cells were infected with Ad-NFAT-luciferase and treated for 3 hours with […] (0-16%) of iohexol radiocontrast. NFAT activity in MDCK cells was measured via NFAT-luciferase expression.

CC(=O)N(CC(O)CO)c1c(I)c(C(=O)NCC(O)CO)c(I)c(C(=O)NCC(O)CO)c1I (centres unmarked) [iohexol radiocontrast, iohexol]
increase in NFκB activation [1]: approximately 5 fold
NFAT activation relative to control [2]: 40 fold
